One series has as its system α4β2 cHS/cLS receptors. As to the kind of experiment: Oocyte two-electrode voltage-clamp electrophysiology, α4β2. It is filed as cell-based. Conditions: Xenopus laevis oocytes. The protocol:
(§1) Two-electrode voltage-clamp electrophysiology recordings were done in Xenopus laevis oocytes injected with approximately 25 ng cRNA. After injection, oocytes were incubated at 17° C. for 2-3 days. During measurements, an oocyte was placed in a custom designed recording chamber where compound solutions are added directly to the oocyte via a glass capillary. Compound solutions were prepared on the day of measurement and applied to oocytes with a flowrate of 2.0 ml/min. All datasets were baseline subtracted and responses to individual applications were read as peak current amplitudes. Concentration response relationships describing compound effect at a fixed acetylcholine concentration were fitted to a monophasic Hill-equation. Potency (EC50) and efficacy values (fitted maximal current relative to maximal current of acetylcholine).

Series [1] has as its target T1, neuromuscular α1-containing receptor subtypes (Homo sapiens, UniProt P02708+P07510+Q07001).
T1 construct: endogenous in cells; host or cells: TE671
Briefly: FLIPR fluorescence-based calcium assay, TE671 cells. It is filed as cell-based. Conditions: FLIPR calcium response relative to nicotine. The method, then:
The level of agonist activity of 9-methyl-3-pyridin-3-yl-3,9-diaza-bicyclo[3.3.1]nonane was tested in functional fluorescence-based calcium assays using TE671 cells and HEK293 cells stably expressing human α6/α3β2β3^V273S, α3β4 and α4β2 nicotinic receptors.
Cells were plated on poly-D-lysine coated 384-well microtiter plates and were allowed to proliferate for 24 h. Dye loading was performed by incubating cells with 2 μM fluo-4/AM for 1.5 h at room temperature. Dye not taken up by cells was removed by aspiration followed by three washing cycles with 25 μl of NMDG Ringer buffer (in mM: 140 NMDG, 5 KCl, 1 MgCl2, 10 CaCl2, 10 HEPES, pH 7.4) after which the cells were kept in 25 μl of the same buffer. The microtiter plates were placed in a Fluoremetric Imaging Plate Reader (FLIPR) and subjected to test compound at various concentrations. Background subtracted compound-mediated calcium responses were normalized to 100 μM nicotine control responses and pEC50 as well as relative maximal efficacy values were determined.
The neuromuscular nAChRs subtype—composed of α1β1γδ subunits—can be studied in the human medulloblastoma cell line TE671, and the α1 subunit can be specifically labelled with ^3H-α-bungarotoxin.

Series [2] relates to nicotinic receptors in the brain. It is filed as in vivo, mice. The method, then:
Accumulation of ^3H-epibatidine occurs preferentially in brain regions containing nicotinic receptors. […] The specific binding in thalamus reaches a maximum 30 min after an i.v. injection of ^3H-epibatidine and this maximum is maintained for another 30 min.
All test substances were administered as solutions or suspensions prepared in vehicle (e.g. saline, water, 5% glucose, 0.5% CMC, 0.5% HPMC or 10% HPβCD) and tested in serial 1:3 dilutions. Doses were adjusted for salt.
Groups of three female NMRI mice (25 g) were administered vehicle or test substance p.o. at a volume of 0.75 ml. Mice were injected i.v. via the tail vein with 1 μCi of ^3H-epibatidine in 0.2 ml saline 45 min before decapitation. At the time of decapitation, the thalamus and a piece of cerebellum were rapidly dissected on ice. Tissues were weighed and dissolved for 36 h with 1 ml 2% sodium-laurylsulfate. The solubilized tissue was then added 2 ml of scintillation cocktail, and the amount of radioactivity in the tissue was counted by conventional liquid scintillation counting. Groups of vehicle-treated mice served as controls. Non-specific binding was defined as the amount of binding in cerebellum in vehicle treated mice.
Specific binding was determined as the amount of binding (dpm/5 mg tissue) in thalamus minus the amount of binding in cerebellum (dpm/5 mg tissue) in vehicle mice. […]

Series [3] deals with T2, (Homo sapiens, UniProt P30926+P32297).
T2 construct: expressed in transfected cells; host or cells: Xenopus laevis oocytes injected with cRNA
T2 sequence (P32297 32-505): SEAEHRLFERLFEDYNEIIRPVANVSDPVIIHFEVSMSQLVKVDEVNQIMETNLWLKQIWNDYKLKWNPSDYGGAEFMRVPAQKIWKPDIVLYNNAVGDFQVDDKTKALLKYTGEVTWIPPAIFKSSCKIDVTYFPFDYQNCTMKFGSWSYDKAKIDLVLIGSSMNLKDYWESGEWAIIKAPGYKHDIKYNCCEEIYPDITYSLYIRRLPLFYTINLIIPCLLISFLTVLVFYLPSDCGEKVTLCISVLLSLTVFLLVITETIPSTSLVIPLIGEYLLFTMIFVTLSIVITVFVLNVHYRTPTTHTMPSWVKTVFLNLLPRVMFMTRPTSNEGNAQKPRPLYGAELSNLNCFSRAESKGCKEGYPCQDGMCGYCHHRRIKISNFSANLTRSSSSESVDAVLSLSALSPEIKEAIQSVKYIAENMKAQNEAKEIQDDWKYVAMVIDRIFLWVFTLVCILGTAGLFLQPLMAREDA
T2 sequence (P30926 22-498): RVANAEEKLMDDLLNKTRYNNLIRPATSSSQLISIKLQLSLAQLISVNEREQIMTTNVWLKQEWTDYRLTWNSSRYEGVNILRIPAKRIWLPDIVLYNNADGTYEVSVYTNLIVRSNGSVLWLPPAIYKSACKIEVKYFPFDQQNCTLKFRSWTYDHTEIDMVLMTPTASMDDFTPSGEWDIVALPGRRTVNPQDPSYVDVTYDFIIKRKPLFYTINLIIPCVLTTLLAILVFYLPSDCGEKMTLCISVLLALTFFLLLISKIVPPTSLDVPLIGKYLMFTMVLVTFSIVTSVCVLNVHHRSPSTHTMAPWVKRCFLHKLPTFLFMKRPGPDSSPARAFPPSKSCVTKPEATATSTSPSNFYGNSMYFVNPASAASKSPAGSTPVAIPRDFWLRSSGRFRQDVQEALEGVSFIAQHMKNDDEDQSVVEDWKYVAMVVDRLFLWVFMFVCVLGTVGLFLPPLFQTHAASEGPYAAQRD
Briefly: Oocyte two-electrode voltage-clamp electrophysiology, α3β4. Conditions: Xenopus laevis oocytes. It is filed as cell-based. The protocol:
as §1

Series [4] concerns reserpine-induced tremors. Briefly: Reserpine-induced tremors in rats (tremor monitor power spectra). It is filed as in vivo, rat. Conditions: reserpine 1 mg/kg i.v.; compound 0.1 and 1.0 mg/kg s.c.; L-DOPA 100 mg/kg i.p. + benserazide. An excerpt: Parkinson's disease is associated with severe dopamine deficiency caused by neurodegeneration of dopaminergic cell bodies residing in Substantia Nigra pars compacta. As alpha6 nAChRs are enriched in the nigrostriatal dopamine pathway, activating this receptor may ameliorate symptoms in nigro-striatal dopamine deficiency models. Reserpine injections to rodents result in depletion of monoamines in the nigro-striatal dopamine pathway, resulting in catalepsy and tremors. Both behaviours can be quantified using dedicated tremor boxes.
Six groups of male Sprague Dawley rats (250-300 grams) were subjected to the following treatment schedules, and effects on power spectra, assessed in automated tremor monitors were evaluated for 30 minutes: • Vehicle+vehicle • Vehicle+reserpine (1 mg/kg) • 9-Methyl-3-pyridin-3-yl-3,9-diaza-bicyclo[3.3.1]nonane (0.1 mg/kg)+reserpine (1 mg/kg) • 9-Methyl-3-pyridin-3-yl-3,9-diaza-bicyclo[3.3.1]nonane (1.0 mg/kg)+reserpine (1 mg/kg) • L-DOPA (100 mg/kg)+reserpine (1 mg/kg) • 9-Methyl-3-pyridin-3-yl-3,9-diaza-bicyclo[3.3.1]nonane (1.0 mg/kg)+L-DOPA (100 mg/kg)+reserpine (1 mg/kg)
Reserpine was pre-treated i.v. 60 minutes prior to test start in a dose volume of 2 ml/kg. 9-Methyl-3-pyridin-3-yl-3,9-diaza-bicyclo[3.3.1]nonane was pre-treated s.c. 45 minutes prior to test start in a dose volume of 1 ml/kg. The dose of 9-methyl-3-pyridin-3-yl-3,9-diaza-bicyclo[3.3.1]nonane was based on 3H-epibatidin displacement studies showing half maximal displacement of specific binding of 3H-epibatidin in doses equaling 0.15 mg/kg in rats. L-DOPA was pre-treated i.p. 30 minutes prior to test start in a dose volume of 5 ml/kg. […] All animals dosed with L-DOPA was also dosed with the peripherally acting decarboxylase inhibitor Benserazide to prevent the peripheral break down of L-DOPA (benserazide: 50 mg/kg, s.c., 30 min. prior to test start in a dose volume of 1 ml/kg).

T1 sequence (P02708 21-457): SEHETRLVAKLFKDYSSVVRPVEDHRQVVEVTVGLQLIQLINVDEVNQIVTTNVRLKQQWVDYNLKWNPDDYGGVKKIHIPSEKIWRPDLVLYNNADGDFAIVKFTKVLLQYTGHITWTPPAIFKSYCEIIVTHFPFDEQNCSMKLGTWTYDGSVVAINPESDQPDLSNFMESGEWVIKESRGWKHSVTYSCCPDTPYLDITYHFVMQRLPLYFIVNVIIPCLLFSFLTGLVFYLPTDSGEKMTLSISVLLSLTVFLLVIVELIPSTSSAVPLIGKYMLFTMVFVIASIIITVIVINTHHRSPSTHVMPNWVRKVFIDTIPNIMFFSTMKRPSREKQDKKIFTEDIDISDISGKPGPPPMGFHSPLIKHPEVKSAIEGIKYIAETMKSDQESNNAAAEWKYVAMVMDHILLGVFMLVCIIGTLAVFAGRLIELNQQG
T1 sequence (P11230 24-501 partner): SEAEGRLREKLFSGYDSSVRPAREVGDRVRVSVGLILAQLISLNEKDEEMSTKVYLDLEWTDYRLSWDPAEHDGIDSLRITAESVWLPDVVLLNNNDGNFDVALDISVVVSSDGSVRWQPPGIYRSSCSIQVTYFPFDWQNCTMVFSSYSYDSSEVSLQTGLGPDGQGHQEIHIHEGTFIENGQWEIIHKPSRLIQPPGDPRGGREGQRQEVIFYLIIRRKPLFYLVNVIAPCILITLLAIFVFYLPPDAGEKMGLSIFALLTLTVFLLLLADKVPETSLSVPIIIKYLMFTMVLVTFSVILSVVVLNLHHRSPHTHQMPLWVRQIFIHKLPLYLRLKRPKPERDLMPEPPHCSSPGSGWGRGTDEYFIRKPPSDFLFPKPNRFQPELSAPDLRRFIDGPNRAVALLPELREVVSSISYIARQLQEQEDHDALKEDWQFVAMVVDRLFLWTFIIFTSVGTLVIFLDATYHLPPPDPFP
T1 sequence (P07510 23-517): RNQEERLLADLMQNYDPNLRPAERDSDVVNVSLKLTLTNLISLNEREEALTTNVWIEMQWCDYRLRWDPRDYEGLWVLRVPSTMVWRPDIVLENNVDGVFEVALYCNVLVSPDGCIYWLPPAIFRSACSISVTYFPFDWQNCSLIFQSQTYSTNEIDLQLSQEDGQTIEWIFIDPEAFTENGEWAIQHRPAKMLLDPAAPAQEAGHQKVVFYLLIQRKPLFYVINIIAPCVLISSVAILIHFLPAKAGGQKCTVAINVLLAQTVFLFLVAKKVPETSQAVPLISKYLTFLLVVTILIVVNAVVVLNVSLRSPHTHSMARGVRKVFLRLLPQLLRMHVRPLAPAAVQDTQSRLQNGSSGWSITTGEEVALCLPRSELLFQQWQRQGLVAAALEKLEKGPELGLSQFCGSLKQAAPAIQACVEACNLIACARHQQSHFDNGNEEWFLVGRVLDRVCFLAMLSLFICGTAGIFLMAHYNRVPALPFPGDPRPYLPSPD
T1 sequence (Q07001 22-517): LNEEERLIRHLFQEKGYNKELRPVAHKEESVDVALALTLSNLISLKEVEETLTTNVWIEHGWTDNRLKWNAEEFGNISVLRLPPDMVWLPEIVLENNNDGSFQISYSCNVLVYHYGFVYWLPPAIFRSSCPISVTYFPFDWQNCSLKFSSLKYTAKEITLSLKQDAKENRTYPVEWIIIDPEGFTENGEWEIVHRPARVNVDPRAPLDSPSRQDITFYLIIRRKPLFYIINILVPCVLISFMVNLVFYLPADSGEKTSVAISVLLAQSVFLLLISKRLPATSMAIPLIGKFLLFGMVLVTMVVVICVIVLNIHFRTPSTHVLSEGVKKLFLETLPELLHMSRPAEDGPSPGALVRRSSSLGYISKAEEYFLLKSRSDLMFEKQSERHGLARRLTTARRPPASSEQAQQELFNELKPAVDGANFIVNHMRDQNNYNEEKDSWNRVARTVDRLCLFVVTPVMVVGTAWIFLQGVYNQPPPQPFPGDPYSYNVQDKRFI

Regarding `CN1C2CCCC1CN(c1cccnc1)C2` [9-methyl-3-pyridin-3-yl-3,9-diaza-bicyclo[3.3.1]nonane], the efficacy result (in the series with α4β2 cHS/cLS receptors; in series [1]; in series [3]) was “practically no efficacy” each time. Also, in series [2] (mice pre-dosed for 45 min, p.o.), the “ED50, inhibition of specific binding of 3H-epibatidine” value came out at 1.3 mg/kg. Further, the “maintained brain exposure (duration)” value in series [2] (mice, 2 mg/kg p.o., time course up to 6 hours) was “at least 6 hours”. Further, the “effect on reserpine-induced tremors, AUC 40-63 Hz” value in series [4] is given as “dose-related reversal of reserpine tremors reaching statistical significance at 1.0 mg/kg”. Further, the “reversal of reserpine-induced reduction of low frequency movements (catalepsy), AUC 3-13 Hz” value in series [4] is “Neither threshold dose of L-DOPA, nor 9-methyl-3-pyridin-3-yl-3,9-diaza-bicyclo[3.3.1]nonane or the combination of the two, was able to reverse this reduction”.

The record behind these values is patent publication US20180311238A1, “Selective Agonist Of a6 Containing nAChRs” (Saniona A/S, priority 2017, published 2018).
